{
  "source": "patent US12066428B2",
  "about": "“Cell-substrate impedance monitoring of cancer cells” (Agilent Technologies, Inc., priority 2016, dated 2024)",
  "assay_type_in_all_cases": "cell-based, human",
  "key": {"A549 cells [1]": {"test_system": "A549 cells", "assay": "A549 target cells incubated with inhibitors alone (RT-CES control)", "conditions": "A549 target cells without NK-92", "description": "Inhibition of NK-mediated cytolysis of target cells by agents which block the signaling pathways leading to cytotoxicity. The interaction of NK receptors at the cell membrane by target cells leads to the activation of signal transduction machinery which results in cytolysis of target cells (Vivier et al., 2004). One of the key signaling cascades which regulate the fusion of perforin and granzyme containing secretory granules at the NK/target cell synaptic junction is the phosphatidyl-inositol-3-kinase (PI3K), Rac and mitogen activated protein kinase 1 (Erk) pathway (Djeu et al., 2002; Vivier et al., 2004). In order to determine the specificity of the signaling pathways in regulating NK-mediated cytotoxicity, we therefore sought to utilize specific inhibitors of the PI3K and Erk pathways. NK-92 cells were incubated with both the PI3K inhibitor Wortmannin and the Erk pathway inhibitor PD98059 or DMSO as a control and then added to A549 target cells. […] We calculated percent inhibition of cytolysis for both inhibitors at different time points after NK addition. […] In summary, the experiments shown here clearly establish that the RT-CES system can be used to monitor NK-mediated cytotoxic activity against a variety of different cell lines."}, "[2]": {"test_system": "NK-92-mediated cytolysis of A549 cells", "assay": "Inhibition of NK-92-mediated cytolysis by signaling pathway inhibitors (RT-CES)", "conditions": "NK-92 pre-incubated with inhibitor, E/T 16:1", "procedure": "Cytolytic analysis. Target cells were seeded into the wells of either 16-well or 96-well E-plate in 100 μL of media. Cell growth was dynamically monitored using the RT-CES system for a period of 24-34 hours, depending on the experiment until they reached log growth phase and formed a monolayer. Effector cells at different concentrations were then directly added into individual wells containing the target cells. For background control, effector cells were added to a well without target cells. After addition of the effector cells, the E-plate was returned to the e-plate station and the measurements were automatically collected by the analyzer every 15 minutes for up to 20 hours.\nData analysis. The integrated software is able to display entire history of the experiment from seeding the cells to termination of cytolysis. […] The cell index here is determined by calculating, for each measurement frequency f, the relative-change (Relative change (f)=(Rcell (f)−Rbackground(f))/Rbackground(f)) in resistance (a component of impedance) of a well when target cells are present in the well (Rcell (f)) with respect to background resistance (Rbackground) of the well when no cell is present and only cell culture medium is in the well, and then finding the maximum relative-change in resistance for all frequencies measured (Cell Index=max {Relative change (f)} for all measurement frequencies). […]"}, "H460 cells": {"test_system": "H460 cells", "assay": "Time-dependent cell index of drug-treated cells (cell-substrate impedance)", "protocol": "The device was positioned on a device station that was located in an incubator maintaining conditions of 37° C. and 5% CO2. The cells were cultured and treated at their exponential growth phase with different concentrations of paclitaxel. The dynamic response of the cells to different doses of paclitaxel was monitored by monitoring cell-substrate impedance in real time every 15 minutes for 50 hours after treatment using a cell-substrate impedance monitoring system. The cell-substrate impedance monitoring system calculated the cell index at each time point monitored and plotted the cell index as a function of time.\nThe device was positioned on a device station that was located in an incubator maintaining conditions of 37 degrees C. and 5% CO2."}, "A549 cells [3]": {"test_system": "A549 cells", "assay": "RT-CES dynamic monitoring of drug interaction with target cells", "conditions": "A549, highest concentration; cells later recover and re-proliferate", "procedure": "Drug Treatment and Cytotoxicity Assessment.\nIn order to observe the kinetics of drug interaction with target cells, A549 non-small lung cancer cells were seeded in ACEA 96× E-plate™ and continuously monitored until the cells reached the log growth phase at which point different concentrations of paclitaxel were added to the cells at the indicated final concentration. […] While it remains to be determined if this phenomenon is due to metabolism and inactivation of paclitaxel or due to the emergence of paclitaxel-resistant subpopulation, this experiment clearly exemplifies the tremendous advantage of real-time measurement which is offered by the RT-CES system and allows the user to the opportunity to observe and assess the entire history of drug interaction with the target cells which provides further information in addition to cell viability or cytotoxicity. The phenomenon observed in FIG. 20A would've been easily missed by traditional single-point assays such as MTT.\nYet another major advantage of using the RT-CES system to continually monitor the interaction of drugs with target cells is that the user can obtain insight into the mechanism of action of the drug of interest. […]"}},
  "data": [
    {"compound": "COc1cccc(-c2cc(=O)c3ccccc3o2)c1N", "note": "[PD98059]", "values": [
      {"measurement": "effect of inhibitor alone on A549 baseline", "setting": "A549 cells [1]", "value": "minimal effect on the baseline"},
      {"measurement": "effect on NK-92-mediated cytolysis of A549 cells", "setting": "[2]", "value": "dose-dependently inhibited"}
    ]},
    {"compound": "CC(=O)O[C@H]1C(=O)[C@@]2(C)[C@H]([C@H](OC(=O)c3ccccc3)[C@]3(O)C[C@H](OC(=O)[C@H](O)[C@@H](NC(=O)c4ccccc4)c4ccccc4)C(C)=C1C3(C)C)[C@]1(OC(C)=O)CO[C@@H]1C[C@@H]2O", "note": "[paclitaxel]", "values": [
      {"measurement": "time over which cell index exhibited a near-constant value", "setting": "H460 cells; H460, 33 nanomolar", "value": "about 15 hours"},
      {"measurement": "cell index response after compound addition", "setting": "H460 cells; H460, concentrations between 67 nanomolar and 500 nanomolar", "value": "gradual decrease in cell index after compound addition"},
      {"measurement": "effect on A549 cells (Cell Index trace)", "setting": "A549 cells [3]", "value": "initially induces a cytotoxic effect"}
    ]}
  ]
}
